Results as given in patent publication US4865619A, “Use, as a coupler, of 2,4-diamino-1,3-dimethoxybenzene or one of its salts, in combination with oxidation dye precursors, for dyeing human hair, hair dyeing composition containing the said coupler and process for preparing the said coupler” (L'Oreal, priority 1987, dated 1989).

Tests used:
[1] = coloration of hair by the coupler in combination with oxidation dye precursors, oxidizing alkaline medium; design: species or system human
Protocol: According to this process, the dyeing composition described above is mixed at the time of use with a sufficient quantity of an oxidizing solution, and the mixture obtained is then applied on the hair.
The oxidizing solution contains oxidizing agents such as hydrogen peroxide, urea peroxide or persalts such as ammonium persulphate. "20 volumes" hydrogen peroxide solution is preferably used.
The mixture obtained is applied on the hair; it is left in place for 10 to 40 minutes, preferably 15 to 30 minutes, after which the hair is rinsed, washed with shampoo, rinsed again and dried.

[2] = mutagenicity (coupler stated to be nonmutagenic)

stability of the colorations ([1]; red colorations, in combination with p-aminophenols, oxidizing alkaline medium): good stability
Compound: COc1ccc(N)c(OC)c1N [2,4-diamino-1,3-dimethoxybenzene]
stability of the hues to light, inclement weather and washing ([1]; para-aminophenols, after development in the presence of an oxidizing agent): especially stable to light, to inclement weather and to washing
mutagenicity [2]: nonmutagenic
